Results: US5484717A, “Antibiotic 31F508α1, 31F508α2, 31F508β1, 31F508β2” (American Cyanamid Company, priority 1995, dated 1996)
Values after ≈ are worked out from the molar mass of the structure shown. Read-outs that look alike come from different tables or passages of the source.

Legend:
[1] = Stability (conversion in neutral or basic solution; decomposition on drying); assay type: physicochemical
Method: The crude product is then separated into the α1, α2, β1 and β2 components and further purified by high performance liquid chromatography on a reverse-phase column equilibrated with 0.1% trifluoroacetic acid in water followed by slution with an acetonitrile gradient to 10%. Active fractions are pooled and freeze dried. Freeze dried fractions are dissolved in 0.01M hydrochloric acid, applied to a reverse phase column and eluted with an acetonitrile gradient to 10% resolves the two components α1 and α2. […] Beta is the quinone form of α1 or α2 having lost hydrogens from the oxygens connected to carbon10 and 13.
The freeze dried material is suspended in methanol and the insolubles removed by filtration. The soluble material is concentrated to dryness and the concentrate dissolved in 1% trifluoroacetic acid in water. Insolubles are removed by centrifugation. The soluble material is loaded onto a preparative reverse phase C18 column equilibrated with 0.1% trifluoroacetic acid in water. The column is eluted with an acetonitrile gradient to 10%. Active fractions containing the alpha component are pooled and freeze dried. Active fractions containing the beta component are adjusted to pH 8 with solid ammonium bicarbonate and extracted with methylene chloride. The beta component is stored in methylene chloride as drying leads to rapid decomposition. […]

[2] = system: M. morganii (VGH 84-11); experiment: In vitro antibacterial activity, agar dilution MIC; assay type: cell-based; settings: Morganella morganii, 18 h, read-out: Minimum Inhibitory Concentration
Method: (§1) The in vitro antibacterial activity of 31F508α1 and α2 is determined against a spectrum of gram-positive and gram-negative bacteria by a standard agar dilution method. Mueller-Hinton agar with and without 5% sheep blood and two-fold decreasing concentrations of either 31F508α1 or α2 are poured into petri dishes. The agar surfaces are inoculated with 1 to 5×10^4 colony forming units of bacteria by means of the Steers replicating device. The lowest concentration of antibiotic that inhibits growth of a bacterial strain after 18 hours incubation is recorded as the minimal inhibitory concentration for that strain. The results are given in Table V with sheeps blood added to the agar.

[3] = system: S. lutea (ATCC 9341); experiment: In vitro antibacterial activity, agar dilution MIC; assay type: cell-based; settings: 18 hours; for MIC: Micrococcus luteus, ATCC9341, without sheep blood, read-out: Minimum Inhibitory Concentration
Method: as §1

[4] = system: B. cereus (Bacto); experiment: In vitro antibacterial activity, agar dilution MIC; assay type: cell-based; settings: Bacillus cereus, 18 h, read-out: Minimum Inhibitory Concentration
Method: as §1

[5] = system: E. coli (ATCC 25922); experiment: In vitro antibacterial activity, agar dilution MIC; assay type: cell-based; settings: 18 hours; for MIC: Escherichia coli, ATCC25922, without sheep blood, read-out: Minimum Inhibitory Concentration
Method: as §1

[6] = system: P. aeruginosa (ATCC 27853); experiment: In vitro antibacterial activity, agar dilution MIC; assay type: cell-based; settings: 18 hours; for MIC: Pseudomonas aeruginosa, ATCC27853, without sheep blood, read-out: Minimum Inhibitory Concentration
Method: as §1

[7] = system: E. faecalis (ID-2131); experiment: In vitro antibacterial activity, agar dilution MIC; assay type: cell-based; settings: Enterococcus faecalis, 18 h, read-out: Minimum Inhibitory Concentration
Method: as §1

[8] = system: CNS (4615); experiment: In vitro antibacterial activity, agar dilution MIC; assay type: cell-based; settings: 18 h
Method: as §1

[9] = system: E. faecium (12202); experiment: In vitro antibacterial activity, agar dilution MIC; assay type: cell-based; settings: Enterococcus faecium, 18 h, read-out: Minimum Inhibitory Concentration
Method: as §1

[10] = system: S. Pyogenes (ID-3187); experiment: In vitro antibacterial activity, agar dilution MIC; assay type: cell-based; settings: Streptococcus pyogenes, 18 h, read-out: Minimum Inhibitory Concentration
Method: as §1

[11] = system: E. faecalis (ATCC 29212); experiment: In vitro antibacterial activity, agar dilution MIC; assay type: cell-based; settings: Enterococcus faecalis, ATCC29212, 18 h, read-out: Minimum Inhibitory Concentration
Method: as §1

[12] = system: E. Avium (ID-3953); experiment: In vitro antibacterial activity, agar dilution MIC; assay type: cell-based; settings: Enterococcus avium, 18 h, read-out: Minimum Inhibitory Concentration
Method: as §1

[13] = system: Staphylococcus aureus (ATCC 29213); experiment: In vitro antibacterial activity, agar dilution MIC; assay type: cell-based; settings: ATCC29213, 18 h, read-out: Minimum Inhibitory Concentration
Method: as §1

[14] = system: E. coli (J2445); experiment: In vitro antibacterial activity, agar dilution MIC; assay type: cell-based; settings: Escherichia coli, 18 h, read-out: Minimum Inhibitory Concentration
Method: as §1

[15] = system: Staphylococcus aureus (ID-2727); experiment: In vitro antibacterial activity, agar dilution MIC; assay type: cell-based; settings: 18 h, read-out: Minimum Inhibitory Concentration
Method: as §1

[16] = system: CNS (ID-3120); experiment: In vitro antibacterial activity, agar dilution MIC; assay type: cell-based; settings: 18 h
Method: as §1

[17] = system: Staphylococcus aureus (SMITH); experiment: In vitro antibacterial activity, agar dilution MIC; assay type: cell-based; settings: 18 h, read-out: Minimum Inhibitory Concentration
Method: as §1

[18] = system: CNS (ID-3941); experiment: In vitro antibacterial activity, agar dilution MIC; assay type: cell-based; settings: 18 h
Method: as §1

[19] = system: E. faecalis (12201); experiment: In vitro antibacterial activity, agar dilution MIC; assay type: cell-based; settings: Enterococcus faecalis, 18 h, read-out: Minimum Inhibitory Concentration
Method: as §1

[20] = system: E. faecalis (ID-1829); experiment: In vitro antibacterial activity, agar dilution MIC; assay type: cell-based; settings: Enterococcus faecalis, 18 h, read-out: Minimum Inhibitory Concentration
Method: as §1

[21] = system: E. faecalis (ID-4168); experiment: In vitro antibacterial activity, agar dilution MIC; assay type: cell-based; settings: Enterococcus faecalis, 18 h, read-out: Minimum Inhibitory Concentration
Method: as §1

[22] = system: Staphylococcus aureus (MEMC-89-4); experiment: In vitro antibacterial activity, agar dilution MIC; assay type: cell-based; settings: 18 h, read-out: Minimum Inhibitory Concentration
Method: as §1

[23] = system: Streptococcus pneumoniae (ID-4444); experiment: In vitro antibacterial activity, agar dilution MIC; assay type: cell-based; settings: 18 h, read-out: Minimum Inhibitory Concentration
Method: as §1

[24] = read-out: Minimum Inhibitory Concentration, CNS (4615), without sheep blood
[25] = Staphylococcus aureus (ATCC 29213-), without sheep blood
[26] = read-out: Minimum Inhibitory Concentration, CNS (ID-3120), without sheep blood
[27] = read-out: Minimum Inhibitory Concentration, CNS (ID-3941), without sheep blood

COc1c(C)c(O)c2c(c1O)C1COC3C4CC5C(C(C2N2CCOC52)N13)N4C (stereo not drawn) [31F508α2]
Conversion to the beta (quinone) form ([1]; listed as α2): converts to the beta form | MIC ([2]; without sheep blood): 0.5 µg/mL (≈ 1.25 µM) | MIC [3]: 0.002 µg/mL (≈ 0.00498 µM) | MIC ([4]; without sheep blood): 0.25 µg/mL (≈ 0.623 µM) | MIC [5]: 0.5 µg/mL (≈ 1.25 µM) | MIC [6]: 2 µg/mL (≈ 4.98 µM) | MIC ([7]; without sheep blood): 0.25 µg/mL (≈ 0.623 µM) | MIC [8, 24]: 0.002 µg/mL (≈ 0.00498 µM) | MIC ([9]; without sheep blood): 0.015 µg/mL (≈ 0.0374 µM) | MIC ([10]; without sheep blood): 0.002 µg/mL (≈ 0.00498 µM) | MIC ([11]; without sheep blood): 0.06 µg/mL (≈ 0.149 µM) | MIC ([12]; without sheep blood): 0.03 µg/mL (≈ 0.0747 µM) | MIC [13, 25]: 0.008 µg/mL (≈ 0.0199 µM) | MIC ([14]; without sheep blood): 0.004 µg/mL (≈ 0.00996 µM) | MIC ([15]; without sheep blood): 0.002 µg/mL (≈ 0.00498 µM) | MIC [16, 26]: 0.002 µg/mL (≈ 0.00498 µM) | MIC ([17]; without sheep blood): 0.002 µg/mL (≈ 0.00498 µM) | MIC [18, 27]: 0.002 µg/mL (≈ 0.00498 µM) | MIC ([19]; without sheep blood): 0.015 µg/mL (≈ 0.0374 µM) | MIC ([20]; without sheep blood): 0.06 µg/mL (≈ 0.149 µM) | MIC ([21]; without sheep blood): 0.12 µg/mL (≈ 0.299 µM) | MIC ([22]; without sheep blood): 0.004 µg/mL (≈ 0.00996 µM) | MIC ([23]; without sheep blood): 0.002 µg/mL (≈ 0.00498 µM)

COc1c(C)c(O)c2c(c1O)C1COC3C4CC5C(N4)C(C2N2CCOC52)N13 (stereo not drawn) [31F508α1]
Conversion to the beta (quinone) form ([1]; listed as α1): converts to the beta form | MIC ([2]; with 5% sheep blood): 2 µg/mL (≈ 5.16 µM) | MIC ([2]; without sheep blood): 1 µg/mL (≈ 2.58 µM) | MIC [3]: 0.002 µg/mL (≈ 0.00516 µM) | Minimum Inhibitory Concentration ([3]; with 5% sheep blood): 0.002 µg/mL | MIC ([4]; with 5% sheep blood): 1 µg/mL (≈ 2.58 µM) | MIC ([4]; without sheep blood): 0.5 µg/mL (≈ 1.29 µM) | MIC [5]: 1 µg/mL (≈ 2.58 µM) | Minimum Inhibitory Concentration ([5]; with 5% sheep blood): 1.000 µg/mL | MIC [6]: 2 µg/mL (≈ 5.16 µM) | Minimum Inhibitory Concentration ([6]; with 5% sheep blood): 2.000 µg/mL | MIC ([7]; with 5% sheep blood): 0.25 µg/mL (≈ 0.645 µM) | MIC ([7]; without sheep blood): 0.12 µg/mL (≈ 0.31 µM) | MIC ([8]; read-out: Minimum Inhibitory Concentration, CNS (4615), with 5% sheep blood): 0.03 µg/mL (≈ 0.0774 µM) | MIC [8, 24]: 0.015 µg/mL (≈ 0.0387 µM) | MIC ([9]; with 5% sheep blood): 0.25 µg/mL (≈ 0.645 µM) | MIC ([9]; without sheep blood): 0.03 µg/mL (≈ 0.0774 µM) | MIC ([10]; with 5% sheep blood): 0.004 µg/mL (≈ 0.0103 µM) | MIC ([10]; without sheep blood): 0.002 µg/mL (≈ 0.00516 µM) | MIC ([11]; with 5% sheep blood): 0.12 µg/mL (≈ 0.31 µM) | MIC ([11]; without sheep blood): 0.06 µg/mL (≈ 0.155 µM) | MIC ([12]; with 5% sheep blood): 0.25 µg/mL (≈ 0.645 µM) | MIC ([12]; without sheep blood): 0.06 µg/mL (≈ 0.155 µM) | MIC ([13]; Staphylococcus aureus (ATCC 29213), with 5% sheep blood): 0.12 µg/mL (≈ 0.31 µM) | MIC [13, 25]: 0.06 µg/mL (≈ 0.155 µM) | MIC ([14]; with 5% sheep blood): 0.12 µg/mL (≈ 0.31 µM) | MIC ([14]; without sheep blood): 0.06 µg/mL (≈ 0.155 µM) | MIC ([15]; with 5% sheep blood): 0.015 µg/mL (≈ 0.0387 µM) | MIC ([15]; without sheep blood): 0.008 µg/mL (≈ 0.0206 µM) | MIC ([16]; read-out: Minimum Inhibitory Concentration, CNS (ID-3120), with 5% sheep blood): 0.03 µg/mL (≈ 0.0774 µM) | MIC [16, 26]: 0.015 µg/mL (≈ 0.0387 µM) | MIC ([17]; with 5% sheep blood): 0.008 µg/mL (≈ 0.0206 µM) | MIC ([17]; without sheep blood): 0.004 µg/mL (≈ 0.0103 µM) | MIC ([18]; read-out: Minimum Inhibitory Concentration, CNS (ID-3941), with 5% sheep blood): 0.06 µg/mL (≈ 0.155 µM) | MIC [18, 27]: 0.03 µg/mL (≈ 0.0774 µM) | MIC ([19]; with 5% sheep blood): 0.06 µg/mL (≈ 0.155 µM) | MIC ([19]; without sheep blood): 0.03 µg/mL (≈ 0.0774 µM) | MIC ([20]; with 5% sheep blood): 0.5 µg/mL (≈ 1.29 µM) | MIC ([20]; without sheep blood): 0.12 µg/mL (≈ 0.31 µM) | MIC ([21]; with 5% sheep blood): 0.12 µg/mL (≈ 0.31 µM) | MIC ([21]; without sheep blood): 0.06 µg/mL (≈ 0.155 µM) | MIC ([22]; with 5% sheep blood): 0.06 µg/mL (≈ 0.155 µM) | MIC ([22]; without sheep blood): 0.03 µg/mL (≈ 0.0774 µM) | MIC ([23]; with 5% sheep blood): 0.008 µg/mL (≈ 0.0206 µM) | MIC ([23]; without sheep blood): 0.002 µg/mL (≈ 0.00516 µM)
